Test results: PubChem BioAssay (NCI)
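48-hour exposure; five concentrations; linearly interpolated endpoints. GI50 is the concentration that inhibits growth by half. Definition used: TGI = concentration required for complete inhibition of growth.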

Tests used:
Experiment in all cases: growth of human tumour cells (NCI), 48 h
A498 renal = test system: A498 renal
A549 NSCLC = test system: A549 NSCLC
MDA-MB-435 = test system: MDA-MB-435
SF-268 CNS = test system: SF-268 CNS
SK-MEL-2 melanoma = test system: SK-MEL-2 melanoma
SK-MEL-28 melanoma = test system: SK-MEL-28 melanoma
SN12C renal = test system: SN12C renal
SNB-75 CNS = test system: SNB-75 CNS
SR leukemia = test system: SR leukemia
TK-10 renal = test system: TK-10 renal

SMILES	GI50 (A498 renal)	TGI (A498 renal)	GI50 (A549 NSCLC)	TGI (A549 NSCLC)	GI50 (MDA-MB-435)	TGI (MDA-MB-435)	GI50 (SF-268 CNS)	TGI (SF-268 CNS)	GI50 (SK-MEL-2 melanoma)	TGI (SK-MEL-2 melanoma)	GI50 (SK-MEL-28 melanoma)	TGI (SK-MEL-28 melanoma)	GI50 (SN12C renal)	TGI (SN12C renal)	GI50 (SNB-75 CNS)	TGI (SNB-75 CNS)	GI50 (SR leukemia)	TGI (SR leukemia)	GI50 (TK-10 renal)	TGI (TK-10 renal)
COc1cc2c(cc1NC(=O)C(Cl)Cl)-c1ccc(NC(=O)C(Cl)Cl)cc1C2	0.551 µM	1.89 µM	0.741 µM	2.73 µM	0.378 µM	1.12 µM	0.384 µM	1.94 µM	0.708 µM	2.07 µM	0.611 µM	1.76 µM	4.67 µM	19.6 µM	0.758 µM	3.19 µM	5.27 µM	24.2 µM	0.687 µM	2.53 µM
O=c1[nH]c(=S)[nH]c(-c2ccccc2)c1Cc1c(O)ccc2ccccc12	–	44.7 µM	–	> 100 µM	–	93 µM	–	> 100 µM	–	48.6 µM	–	> 100 µM	–	> 100 µM	–	65 µM	–	> 100 µM	–	59.3 µM
N#Cc1cc2c(cc1Cl)Sc1nnc(Nc3cccc4ccccc34)n1S2(=O)=O	17.5 µM	31.7 µM	37 µM	> 100 µM	4.35 µM	16.4 µM	2.85 µM	10.1 µM	17.3 µM	> 100 µM	5.05 µM	16.3 µM	2.51 µM	6.73 µM	6.43 µM	18.2 µM	2.21 µM	7.82 µM	1.91 µM	5.07 µM
C#CCNC(=O)NC(CCCCNC(=O)OCc1ccccc1)C(=O)OCc1ccccc1 (stereo not given)	–	53.6 µM	–	> 100 µM	–	57.1 µM	–	> 100 µM	–	> 75.8 µM	–	38.5 µM	–	> 81.1 µM	–	37.3 µM	–	> 100 µM	–	> 93 µM
NCc1ccc(-c2nc(-c3ccc(Cl)c(O)c3)c(-c3ccncc3)[nH]2)cc1	> 25 µM	> 25 µM	> 25 µM	> 25 µM	5.18 µM	> 25 µM	> 25 µM	> 25 µM	1.65 µM	9.86 µM	5.3 µM	> 25 µM	> 25 µM	> 25 µM	4.1 µM	> 20 µM	> 25 µM	> 25 µM	> 25 µM	> 25 µM
Cn1c(C(=O)c2cccc3ccccc23)nc2ccccc21	8.59 µM	> 100 µM	> 100 µM	> 100 µM	> 100 µM	> 100 µM	> 100 µM	> 100 µM	> 100 µM	> 100 µM	> 100 µM	> 100 µM	> 100 µM	> 100 µM	15.3 µM	> 100 µM	> 100 µM	> 100 µM	> 100 µM	> 100 µM
O=C1/C(=C/c2ccccc2[N+](=O)[O-])COc2ccc(O)cc21	1.65 µM	7.24 µM	4.49 µM	19.4 µM	2.18 µM	5.96 µM	2.4 µM	7.97 µM	2.98 µM	11 µM	1.55 µM	3.14 µM	1.6 µM	5.55 µM	2.76 µM	19.6 µM	0.366 µM	> 100 µM	3.44 µM	13.9 µM
COc1ccc(-c2c3c(N)c4c(nc3nc3c2c(C)nn3-c2ccccc2)CCCC4)cc1	11.9 µM	27.3 µM	3.01 µM	11 µM	3.83 µM	16.4 µM	5.33 µM	19.4 µM	2.63 µM	5.95 µM	6.75 µM	24.3 µM	3.72 µM	16.1 µM	14 µM	31.8 µM	1.84 µM	5.01 µM	–	–
C[C@@H](NC(=O)c1ccc(F)cc1)c1ccc2c(c1)CCN2C(=O)C1CCOCC1	17.1 µM	88.5 µM	> 100 µM	> 100 µM	> 100 µM	> 100 µM	> 100 µM	> 100 µM	> 100 µM	> 100 µM	> 100 µM	> 100 µM	> 100 µM	> 100 µM	79.2 µM	> 100 µM	> 100 µM	> 100 µM	–	–
CC1CCN(CCOc2ccc(CNc3ccc4nc(CCC5CCCCC5)[nH]c4c3)cc2)CC1	1.77 µM	3.7 µM	–	–	1.64 µM	3.07 µM	1.68 µM	3.44 µM	1.83 µM	3.41 µM	–	–	1.54 µM	2.95 µM	1.59 µM	3.55 µM	0.485 µM	2.66 µM	2.24 µM	4.92 µM
Clc1ccc([I+]c2ccc(Cl)cc2Cl)c(Cl)c1	1.76 µM	6.98 µM	2.66 µM	7.71 µM	1.96 µM	4.33 µM	2.14 µM	4.99 µM	2.62 µM	5 µM	7.14 µM	21.1 µM	1.85 µM	3.9 µM	1.88 µM	5.39 µM	2.19 µM	5.65 µM	–	–
